We go through ten compounds from ChEMBL document CHEMBL1127541, “3,4-Dihydro-3-amino-2H-1-benzopyran derivatives as 5-HT1A receptor ligands and potential anxiolytic agents. 1. Synthesis and structure--activity relationship studies” (J Med Chem, 1994).

Structures are written as SMILES.

Series [1] in a line: Inhibitory concentration of compound was tested as agonist activity against forskolin activated adenylate cyclase. In kind it is functional.
The test system of series [2] is Mus musculus. Nature of the series: (§1) The in vivo compartmental activity was evaluated as minimum significant active dose measured by punishment test. In kind it is functional.
Series [3] deals with Mus musculus. Nature of the series: The in vivo compartmental activity was evaluated as minimum significant active dose measured by Drug discrimination test. Type of series: functional.
Series [4] concerns the target T1, Alpha-2A adrenergic receptor (Bos taurus, UniProt Q28838).
T1 sequence (Q28838 whole entry): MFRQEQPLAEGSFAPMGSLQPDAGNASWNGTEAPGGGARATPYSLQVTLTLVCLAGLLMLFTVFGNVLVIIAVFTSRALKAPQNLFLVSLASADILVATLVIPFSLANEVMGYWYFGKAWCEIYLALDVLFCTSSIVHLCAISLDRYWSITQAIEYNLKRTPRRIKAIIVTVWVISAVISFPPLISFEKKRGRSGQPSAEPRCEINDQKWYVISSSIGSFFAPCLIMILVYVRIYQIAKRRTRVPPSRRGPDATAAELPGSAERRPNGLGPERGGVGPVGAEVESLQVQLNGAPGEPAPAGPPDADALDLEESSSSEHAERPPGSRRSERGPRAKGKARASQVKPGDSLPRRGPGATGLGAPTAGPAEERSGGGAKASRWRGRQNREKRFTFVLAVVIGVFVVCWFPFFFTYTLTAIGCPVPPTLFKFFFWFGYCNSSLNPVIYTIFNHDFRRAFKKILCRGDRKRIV
Nature of the series: Binding affinity against alpha-2 adrenergic receptor in calf frontal cortex. Type of series: tissue-based.

In series [5] the target is 5-hydroxytryptamine receptor 2A (Bos taurus, UniProt Q75Z89). Nature of the series: Binding affinity towards 5-hydroxytryptamine 2 receptor in calf frontal cortex. Type of series: tissue-based.
Chain of 5-hydroxytryptamine receptor 2A (Q75Z89 whole entry): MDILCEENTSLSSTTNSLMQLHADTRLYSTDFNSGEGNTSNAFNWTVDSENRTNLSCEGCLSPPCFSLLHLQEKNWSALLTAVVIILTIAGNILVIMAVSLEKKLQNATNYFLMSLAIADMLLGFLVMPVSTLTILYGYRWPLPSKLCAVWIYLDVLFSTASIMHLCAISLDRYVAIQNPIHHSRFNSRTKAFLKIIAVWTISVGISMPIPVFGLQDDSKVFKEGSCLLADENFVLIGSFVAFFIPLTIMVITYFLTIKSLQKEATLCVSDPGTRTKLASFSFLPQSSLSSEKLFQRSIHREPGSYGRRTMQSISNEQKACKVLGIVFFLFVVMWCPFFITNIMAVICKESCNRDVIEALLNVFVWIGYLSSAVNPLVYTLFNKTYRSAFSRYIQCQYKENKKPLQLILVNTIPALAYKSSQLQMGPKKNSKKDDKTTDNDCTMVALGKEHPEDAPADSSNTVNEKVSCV
Series [6] concerns Mus musculus. Nature of the series: The in vivo compartmental activity was evaluated as minimum significant active dose measured by Dark/light box test. In kind it is functional.
Series [7] has as its system Mus musculus. Nature of the series: The in vivo compartmental activity was evaluated as minimum significant active dose measured by lower lip retraction test. Type of series: functional.
Series [8] has as its target D(1A) dopamine receptor (Bos taurus, UniProt Q95136). Nature of the series: Binding affinity towards dopamine receptor D1 in calf striatum. In kind it is tissue-based.
The target in series [9] is 5-hydroxytryptamine receptor 1B (Rattus norvegicus, UniProt P28564). Nature of the series: Binding affinity for 5-hydroxytryptamine 1B receptor in rat cortex, striatum and globus pallidus. Type of series: tissue-based.
Chain of 5-hydroxytryptamine receptor 1B (P28564 whole entry): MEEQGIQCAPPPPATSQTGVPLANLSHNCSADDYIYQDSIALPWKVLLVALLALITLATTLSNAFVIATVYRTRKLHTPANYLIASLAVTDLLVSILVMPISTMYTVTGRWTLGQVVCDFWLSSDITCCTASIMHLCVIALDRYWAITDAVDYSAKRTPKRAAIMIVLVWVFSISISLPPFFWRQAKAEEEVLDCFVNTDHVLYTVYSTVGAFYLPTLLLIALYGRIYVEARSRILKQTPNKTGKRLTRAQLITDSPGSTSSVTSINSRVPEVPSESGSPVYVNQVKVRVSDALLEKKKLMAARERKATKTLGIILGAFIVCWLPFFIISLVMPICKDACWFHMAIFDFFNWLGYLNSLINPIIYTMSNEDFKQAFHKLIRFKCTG
The species entered for series [10] is Mus musculus. Put plainly: Inhibitory concentration of compound was tested as agonist activity against DRN firing in the dorsal raphe nucleus. Type of series: functional, organism-based.
In series [11] the target is T2, 5-hydroxytryptamine receptor 1A (Rattus norvegicus, UniProt P19327).
T2 sequence (P19327 whole entry): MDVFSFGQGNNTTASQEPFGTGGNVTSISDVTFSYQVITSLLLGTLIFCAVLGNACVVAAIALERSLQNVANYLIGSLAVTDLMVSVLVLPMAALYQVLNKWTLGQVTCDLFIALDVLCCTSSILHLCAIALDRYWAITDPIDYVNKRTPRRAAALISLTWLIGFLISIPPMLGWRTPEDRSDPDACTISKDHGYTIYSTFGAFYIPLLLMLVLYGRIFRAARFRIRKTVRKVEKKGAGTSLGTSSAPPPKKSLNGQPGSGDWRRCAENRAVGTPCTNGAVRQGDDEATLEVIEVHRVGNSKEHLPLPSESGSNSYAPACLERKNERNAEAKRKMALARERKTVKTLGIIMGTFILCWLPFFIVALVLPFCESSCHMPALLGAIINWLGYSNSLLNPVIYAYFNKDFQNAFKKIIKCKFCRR
Nature of the series: Binding affinity against 5-hydroxytryptamine 1A (5-HT1A) receptor in rat hippocampus membranes. In kind it is cell membranes, Membrane.

For series [12], the system named is Mus musculus. Nature of the series: The in vivo compartmental activity was evaluated as minimum significant active dose measured by Forepaw treading test. Type of series: functional.
Series [13] addresses T3, Alpha-1A adrenergic receptor (Bos taurus, UniProt P18130).
T3 sequence (P18130 whole entry): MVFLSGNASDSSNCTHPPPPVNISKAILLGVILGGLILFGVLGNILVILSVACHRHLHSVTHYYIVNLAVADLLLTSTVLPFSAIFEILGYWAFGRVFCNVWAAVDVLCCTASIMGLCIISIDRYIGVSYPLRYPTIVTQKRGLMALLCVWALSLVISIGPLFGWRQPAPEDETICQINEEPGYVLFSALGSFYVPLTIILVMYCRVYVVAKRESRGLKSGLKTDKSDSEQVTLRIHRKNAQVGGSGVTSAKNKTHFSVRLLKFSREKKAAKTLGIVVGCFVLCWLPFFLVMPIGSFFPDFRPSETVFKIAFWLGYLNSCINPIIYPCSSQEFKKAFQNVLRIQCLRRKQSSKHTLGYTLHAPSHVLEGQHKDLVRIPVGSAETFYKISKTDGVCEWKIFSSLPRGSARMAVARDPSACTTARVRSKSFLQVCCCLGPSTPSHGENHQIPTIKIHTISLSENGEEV
Put plainly: Binding affinity against alpha-1 adrenergic receptor in calf frontal cortex. In kind it is tissue-based.

Series [14] concerns the target D(2) dopamine receptor (Bos taurus, UniProt P20288). Nature of the series: Binding affinity against D2 receptor in calf caudate nucleus.
Series [15] can be described thus: Inhibitory concentration of compound was tested as agonist activity against DRN serotonergic neurons firing in the dorsal raphe nucleus. Type of series: functional, tissue-based, Rattus norvegicus.
The subject of series [16] is Mus musculus. The description is as §1. In kind it is ADME, organism-based.

Chain of D(2) dopamine receptor (P20288 whole entry): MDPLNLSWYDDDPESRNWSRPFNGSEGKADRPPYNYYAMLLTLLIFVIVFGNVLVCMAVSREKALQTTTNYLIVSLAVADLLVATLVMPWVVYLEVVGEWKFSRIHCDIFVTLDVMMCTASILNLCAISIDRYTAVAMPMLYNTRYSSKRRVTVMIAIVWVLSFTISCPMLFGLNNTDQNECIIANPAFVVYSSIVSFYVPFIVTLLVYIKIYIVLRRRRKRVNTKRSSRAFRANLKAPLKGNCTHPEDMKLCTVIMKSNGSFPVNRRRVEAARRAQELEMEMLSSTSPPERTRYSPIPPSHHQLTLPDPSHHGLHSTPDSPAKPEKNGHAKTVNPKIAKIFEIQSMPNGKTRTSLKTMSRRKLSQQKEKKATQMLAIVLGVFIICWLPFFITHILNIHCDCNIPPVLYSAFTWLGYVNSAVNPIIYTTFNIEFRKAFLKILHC
Chain of D(1A) dopamine receptor (Q95136 whole entry): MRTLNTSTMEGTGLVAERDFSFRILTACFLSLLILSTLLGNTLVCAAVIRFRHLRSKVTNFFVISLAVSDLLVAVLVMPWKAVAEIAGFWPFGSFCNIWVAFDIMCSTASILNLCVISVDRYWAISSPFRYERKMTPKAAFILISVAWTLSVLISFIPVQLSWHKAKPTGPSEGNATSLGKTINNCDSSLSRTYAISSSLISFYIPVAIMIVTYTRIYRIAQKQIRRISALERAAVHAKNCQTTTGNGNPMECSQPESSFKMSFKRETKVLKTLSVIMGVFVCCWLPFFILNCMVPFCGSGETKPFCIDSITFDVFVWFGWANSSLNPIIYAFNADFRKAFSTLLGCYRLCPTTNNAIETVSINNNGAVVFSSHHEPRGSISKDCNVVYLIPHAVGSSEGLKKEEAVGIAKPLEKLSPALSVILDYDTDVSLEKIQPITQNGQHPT

As for `CCCN(CCCCN1C(=O)CC2(CCCC2)CC1=O)C1COc2cccc(OC)c2C1.O=C(O)C(=O)O` (single isomer, unassigned; (+)), the IC50 in series [1] was 0.0102 µM; in series [4], 0.02 µM; in series [5] it was 3 µM; in series [8], 40 µM; in series [9], 10 µM; in series [10] it was approximately 0.006 µM. In addition, the IC50 in [11] came to 0.0003 µM; in [13], 40 µM; in [14], 3 µM. In [2], the Punishment test msad stood at 0.03 mg/kg. In series [3], the DDT msad was 0.1 mg/kg. The same compound yielded a DLBT in series [6] of 1 mg/kg. Moreover, the LLR msad in series [7] turned out to be 4 mg/kg. Moreover, the FPT msad in [12] was 8 mg/kg.

`CCCN(CCCCN1C(=O)CC2(CCCC2)CC1=O)C1COc2cccc(OC)c2C1.O=C(O)C(=O)O` (stereo in doubt; 9g): the IC50 in series [1] amounted to 0.0263 µM; in series [4], 10 µM; in [5] it was 1 µM; in series [8], 40 µM; in [9] it was 5 µM; in series [11], 0.0002 µM. Further, the IC50 stood at 6 µM in series [13] and 0.01 µM in [14]. Also, the Punishment test msad in series [2] stood at 0.06 mg/kg. The compound further returned a DDT msad in [3] of 0.3 mg/kg. The DLBT in [6] was 2 mg/kg.

In the case of `CCCN(CCC)C1CCc2cccc(O)c2C1` (centres undefined) [8-OH-DPAT], the IC50 in [1] is approximately 0.008 µM; in [4], 1 µM; in series [5] it was 49 µM; in [8] it was more than 1000 µM; in [15], approximately 0.005 µM; in series [13] it was 30 µM. Moreover, the IC50 in series [14] came to 0.8 µM. In addition, in series [16], the Punishment test msad amounted to 0.1 mg/kg.

With `CCCN(CCCCN1C(=O)CC2(CCCC2)CC1=O)C1COc2cccc(OC)c2C1.O=C(O)C(=O)O` (single isomer, unassigned; (-)), the IC50 in series [1] is 0.248 µM; in [4], 0.02 µM; in series [5], 5 µM; in [8], 20 µM; in series [9], 6 µM; in series [10] it was approximately 0.13 µM. Moreover, the half-inhibitory concentration (IC50) in series [11] amounted to 0.002 µM; in series [13], 20 µM; in [14] it was 0.01 µM. The same compound yielded a Punishment test msad in series [2] of 1 mg/kg. For the same compound, the DDT msad in [3] turned out to be 3 mg/kg. This compound returned a DLBT in [6] of more than 2 mg/kg. The compound also returned an LLR msad in series [7] of 8 mg/kg. The compound further came in with an FPT msad in [12] of 32 mg/kg.

Regarding `CCCN(CCNS(=O)(=O)c1ccc(C)cc1)C1COc2cccc(OC)c2C1` (single isomer, unassigned; (+)), the IC50 in series [4] is 50 µM; in [5], more than 1000 µM; in series [8] it was 100 µM; in [9], more than 1000 µM; in series [11] it was 0.008 µM; in series [13] it was 100 µM. This compound came in with an IC50 in series [14] of 0.5 µM.

With `CCCN(CCCN1C(=O)CC2(CCCC2)CC1=O)C1COc2cccc(OC)c2C1` (centres undefined), the IC50 in series [4] amounted to 6 µM; in series [5], 0.8 µM; in [8] it was 10 µM; in series [9] it was 20 µM; in series [11], 0.001 µM; in series [13] it was 8 µM. This compound also showed an IC50 in series [14] of 0.6 µM.

Consider `CCCN(CCCNS(=O)(=O)c1ccc(C)cc1)C1COc2cccc(OC)c2C1` (centres undefined), for which the IC50 came out at 0.5 µM in [4]; 6 µM in [5]; 20 µM in series [8]; 2 µM in [9]; 0.003 µM in series [11]; 3 µM in [13]. In [14], this compound yielded an IC50 of 0.03 µM.

Take `CCCN(CCC)C1COc2ccc3ccccc3c2C1` (centres undefined): the IC50 in series [4] worked out at 10 µM; in [5], 10 µM; in series [8], 40 µM; in [9], 30 µM; in series [11] it was 20 µM; in series [13], 2 µM. In series [14], this compound registered an IC50 of 0.1 µM.

In the case of `CCCN(CCCCN1CCOCC1)C1COc2cccc(OC)c2C1` (centres undefined), the IC50 in [4] was 4 µM; in [5] it was 10 µM; in series [8] it was 100 µM; in series [9], more than 1000 µM; in [11], 0.008 µM; in series [13], 10 µM. For the same compound, in series [14], the IC50 worked out at 0.03 µM.

Regarding `CCCN(CCCCNC(=O)c1ccc(F)cc1)C1COc2cccc(OC)c2C1` (centres undefined), the IC50 in series [4] came out at 4 µM; in [5], 3 µM; in [8] it was 20 µM; in series [9] it was 3 µM; in [11], 0.0004 µM; in [13], 2 µM. Moreover, the IC50 in series [14] stood at 0.007 µM.

A word on the IC50: it is the concentration that inhibits the measured activity by half. Read a high IC50 as lower potency.
